Biological target: T1, Chitinase B (Serratia marcescens, UniProt P11797)
T1 sequence (P11797 whole entry): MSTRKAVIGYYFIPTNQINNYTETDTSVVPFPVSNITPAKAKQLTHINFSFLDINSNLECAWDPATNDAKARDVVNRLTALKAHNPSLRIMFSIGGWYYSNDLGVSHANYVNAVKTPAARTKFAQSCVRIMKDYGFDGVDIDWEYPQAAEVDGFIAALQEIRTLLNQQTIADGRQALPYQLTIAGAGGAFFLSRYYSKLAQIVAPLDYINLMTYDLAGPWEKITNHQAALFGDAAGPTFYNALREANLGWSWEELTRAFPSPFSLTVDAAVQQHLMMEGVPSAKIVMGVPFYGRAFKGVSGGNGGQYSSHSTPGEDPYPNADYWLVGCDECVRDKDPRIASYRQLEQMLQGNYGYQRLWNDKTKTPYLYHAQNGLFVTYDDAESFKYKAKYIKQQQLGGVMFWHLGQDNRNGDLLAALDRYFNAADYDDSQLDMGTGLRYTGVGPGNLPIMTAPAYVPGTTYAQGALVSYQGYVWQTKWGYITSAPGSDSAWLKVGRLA
Experiment: Inhibition of Serratia marcescens chitinase B

Compound | IC50 [µM]
CNC(=O)NC(=N)NCCC[C@@H]1NC(=O)[C@@H](Cc2c[nH]c3ccccc23)NC(=O)C[C@@H](C(=O)O)NC(=O)C[C@@H](C(=O)O)NC(=O)[C@H](Cc2ccccc2)N(C)C1=O | 4.5
CNC(=O)NC(=N)NCCC[C@@H]1NC(=O)[C@@H](CCSC)NC(=O)C[C@@H](C(=O)O)NC(=O)C[C@@H](C(=O)O)NC(=O)[C@H](Cc2ccccc2)N(C)C1=O | 10
CNC(=O)NC(N)=NCCC[C@@H]1NC(=O)[C@@H](CC(C)C)NC(=O)C[C@@H](C(=O)O)NC(=O)C[C@@H](C(=O)O)NC(=O)[C@H](Cc2ccccc2)N(C)C1=O | 1.9
CNC(=O)NC(N)=NCCC[C@@H]1NC(=O)[C@@H](CC(C)C)NC(=O)C[C@@H](C(=O)N2CCC(Cc3ccccc3)CC2)NC(=O)C[C@@H](C(=O)O)NC(=O)[C@H](Cc2ccccc2)N(C)C1=O | 0.23
CNC(=O)NC(N)=NCCC[C@@H]1NC(=O)[C@@H](C(C)C)NC(=O)C[C@@H](C(=O)O)NC(=O)C[C@@H](C(=O)O)NC(=O)[C@H](Cc2ccccc2)N(C)C1=O | 6.1
CNC(=O)NC(N)=NCCC[C@@H]1NC(=O)[C@@H](C)NC(=O)C[C@@H](C(=O)N2CCC(Cc3ccccc3)CC2)NC(=O)C[C@@H](C(=O)O)NC(=O)[C@H](Cc2ccccc2)N(C)C1=O | 1.3
CNC(=O)NC(N)=NCCC[C@@H]1NC(=O)[C@@H](Cc2ccccc2)NC(=O)C[C@@H](C(=O)O)NC(=O)C[C@@H](C(=O)O)NC(=O)[C@H](Cc2ccccc2)N(C)C1=O | 9.9

Source: ChEMBL document CHEMBL1151904, “Computer-aided rational molecular design of argifin-derivatives with increased inhibitory activity against chitinase B from Serratia marcescens” (Bioorg Med Chem Lett, 2009)
